Measurements reported in article PMC4514850, “A Novel TGR5 Activator WB403 Promotes GLP-1 Secretion and Preserves Pancreatic β-Cells in Type 2 Diabetic Mice” (PLoS ONE, 2015).
Entries after “also recorded” stand apart in the source; their conditions may differ.

Tests used:
normal mice = assay: 4-week treatment of normal mice (hypoglycemia risk); assay type: in vivo; conditions: 100 mg/kg, 4 weeks
Procedure: Mice were treated for 4 weeks by WB403 and sitagliptin at 100 mg/kg. Glibenclamide at 2.5 mg/kg was used as positive control for hypoglycemia. FBG (A) and PBG (B) were measured every week. Values are mean ± SD (n = 10). *p<0.05, **p<0.01 vs. vehicle group. (TIF) Click here for additional data file.

HFD/STZ mice = assay: pancreas histology (H&E) of treated HFD/STZ mice; assay type: in vivo; conditions: after 8-week treatment
Procedure: Analysis of islet cell mass was performed using conventional methods. In brief, mice were sacrificed by cervical dislocation. The body part of the pancreas was rapidly excised, fixed in 10% neutral buffered formalin solution for 24 h and embedded in paraffin, then sectioned at 5 μm ready for hematoxylin and eosin (H&E) staining and immunohistochemistry staining (IHC). The latter was carried out using rabbit anti-insulin polyclonal antibody (Cat. no. 4590, 1:600) and rabbit anti-glucagon monoclonal antibody (Cat. no. 8233s, 1:200) from Cell Signaling Technology.
Fig 5 WB403 preserved the mass of pancreatic β-cells and normal distribution of α and β-cells. (A) H&E staining of pancreas from db/db mice, and statistical result. Islets were sized by the Image J analysis software on alternated pancreatic sections spaced each by 100 μm. (B) Immunohistochemical analysis of pancreatic sections by anti-insulin antibody or anti-glucagon antibody. (C) H&E staining of pancreas from HFD/STZ mice, and statistical result. Results are representative islets from each group. 1–5 in the column graph on the right represents normal mice, diabetic mice treated with vehicle, WB403 50 mg/kg, WB403 100 mg/kg, sitagliptin 100 mg/kg respectively (n = 5). *p<0.05, **p<0.01, ***p<0.001 vs. diabetes-vehicle group.

hGPR40 = target: T1, hGPR40 (Homo sapiens, UniProt O14842); assay: GPR40-dependent calcium mobilization in 293-GPR40 stable cells; assay type: cell-based; conditions: 5, 10, 50 μmol/l
T1 construct: expressed in transfected cells
T1 sequence (O14842 whole entry): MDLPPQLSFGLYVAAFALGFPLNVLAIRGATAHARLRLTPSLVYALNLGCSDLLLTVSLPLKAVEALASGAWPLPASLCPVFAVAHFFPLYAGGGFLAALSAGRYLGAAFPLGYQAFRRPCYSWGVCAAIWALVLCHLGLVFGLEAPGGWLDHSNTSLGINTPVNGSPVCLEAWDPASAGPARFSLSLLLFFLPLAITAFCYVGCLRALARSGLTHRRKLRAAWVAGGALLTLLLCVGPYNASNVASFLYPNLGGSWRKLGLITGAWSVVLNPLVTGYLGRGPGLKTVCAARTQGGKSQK
Procedure: (§1) For human TGR5 luciferase (luc) assay, 293T cells were co-transfected with pCRE-luc, pTGR5 (kind gift from Prof. Johan Auwerx, Ecole Polytechnique Fédérale de Lausanne, Lausanne, Switzerland) and pRenilla (Promega, USA). WB403 was added 5 h later. Cells were harvested after 16 h and subjected to luciferase analysis on Lumistar Optima chemiluminescent detector (BMG labtech, Germany). For cAMP testing, 293T cells transiently transfected with pTGR5 or pGPR119 (GeneCopoeia, USA) were washed by FBS-free DMEM, and stimulated with WB403 in FBS-free DMEM containing 3-isobutyl-1-methyl-xanthine (IBMX, Sigma). Cell lysates were collected 30 min later and used for cAMP ELISA assay. FLIPR Calcium 5 assay kit (Molecular Devices, USA) was used for calcium mobilization assay. 293-GPR40 stable cells (kindly provided by Prof. Naiming Zhou of Zhejiang University, Hanzhou, China) or 293 cells transient transfected with GPR120 were seeded at 50,000 cells per well in black-walled clear-bottomed 96-well plates (Costar). An equal volume of loading buffer containing Fluo 4-AM was added the following day and cells were incubated for 1 h before stimulated with compounds. Increase of the intracellular Ca^2+ concentration was monitored by Flexstation 3 system (Molecular Devices, USA).
Fig 6 Effect of WB403 on GPCRs related to GLP-1 secretion. (A) GPCR expression in human NCI-H716 and mouse MIN6 cells. […]

hTGR5 = target: T2, hTGR5 (Homo sapiens, UniProt Q8TDU6); assay: TGR5-dependent cAMP accumulation (ELISA) in transfected 293T cells; assay type: cell-based
T2 construct: expressed in transfected cells; host or cells: 293T cells, transient transfection with pTGR5 (gift from Prof. Johan Auwerx)
T2 sequence (Q8TDU6 1-330): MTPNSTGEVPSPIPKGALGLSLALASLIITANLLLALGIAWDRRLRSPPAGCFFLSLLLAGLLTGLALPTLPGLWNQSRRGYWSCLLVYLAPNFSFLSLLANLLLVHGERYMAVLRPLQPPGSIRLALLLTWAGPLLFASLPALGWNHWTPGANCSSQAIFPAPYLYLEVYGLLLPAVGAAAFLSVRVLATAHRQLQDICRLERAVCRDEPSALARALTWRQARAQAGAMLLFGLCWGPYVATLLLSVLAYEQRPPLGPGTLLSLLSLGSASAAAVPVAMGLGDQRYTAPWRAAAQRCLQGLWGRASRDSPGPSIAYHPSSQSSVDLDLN
Procedure: as §1, with “293-GPR40 stable cells (kindly provided by Prof. Naiming Zhou of Zhejiang University, Hanzhou, China) or 293 cells transient transfected with GPR120 were seeded at 50,000 cells per well in black-walled clear-bottomed 96-well plates (Costar). An equal volume of loading buffer containing Fluo 4-AM was added the following day and cells were incubated for 1 h before stimulated with compounds.” left out
The GLP-1 (active) ELISA kit was purchased from Millipore, and insulin ELISA kit was from Mercodia. For quantitative determination of cAMP, a competitive enzyme immunoassay kit from R&D system was used. […]
Fig 1 WB403 activated TGR5 and promoted active GLP-1 secretion. […] Gallbladders (GB) were removed 30 min later and volumes measured then normalized to body weight (B.W.). n = 10. **p<0.01 vs. vehicle group. […]

## CCc1cc(-c2nc(C)c(COCc3ccc(Br)cc3)s2)ccn1 [WB403, 4-(5-((4-bromobenzyloxy)-methyl)-4-methylthiazol-2-yl)-2-ethylpyridine]
Normal mice
  FBG lowering in normal mice: did not cause significant FBG and PBG lowering
  PBG lowering in normal mice: did not cause significant FBG and PBG lowering
HFD/STZ mice
  islet area: restored islet area but did not expand it beyond that of normal mice
hGPR40
  hGPR40-Ca2+ activation (calcium mobilization): neither did it exhibit significant effect; also recorded: no significant effect
hTGR5; 1–50 μmol/l, 30 min, IBMX, Fig 1B
  Gs-coupled cAMP accumulation through TGR5: dose-dependently stimulate
hTGR5; control 293T cells transfected with an empty plasmid
  cAMP activity in control 293T cells: no stimulation
